How the values were obtained:
LNCaP = assay: Cell viability SRB assay, 96 h; assay type: cell-based; conditions: Homo sapiens
Description: (§1) Cell viability (LNCaP, PC-3 prostate, DU145, PPC-1, and TSU-Pr1 prostate cancer cell lines, HT-29 colon cancer cell line, and MCF-7 breast cancer cell line) was quantitated using the sulforhodamine B (SRB) assay after 96 h coincubation with different concentrations of compound in 96-well plates. Cell viability of leukemia cells (K562 and doxorubicin-resistant K562/Dox) was quantitated by MTT assay after 96 h coincubation with different concentrations of compound in 96-well plates. Drug-induced apoptosis was determined by anti-histone ELISA assay and DNA laddering. Cell cycle progression was assessed by propidium iodide staining and fluorescence-activated cell sorting (FACS) analysis. In vitro tubulin polymerization assay was determined by CytoDYNAMIX ScreenTM3 (CDS-03) kits according to the manufacturer's instructions. Anti-apoptosis protein (Bcl-2 and Bcl-xl) and pro-apoptosis protein (Bax) were examined in LNCaP and PC-3 after 24 h incubation with different concentrations of compound 13 by Western blot assay. In vivo PC-3 xenograft studies were conducted by i.v. dosing of 50 mg/kg, 100 mg/kg and 150 mg/kg for 2 weeks.
(§2) Cells were plated in 96-well plates at a density of 800-5,000 cells/well, depending on the cell line, in their required growth media containing 10% fetal bovine serum. Preliminary studies were performed with each cell line using a variety of cell densities and incubation times to determine appropriate seeding densities. The compound of interest was dissolved in DMSO, diluted in cell culture medium (final DMSO concentration was less than 0.5% v/v), and added to quadruplicate wells at final concentrations ranging from 0 to 100 μM. Control wells to which only drug-free vehicle was added were included as negative controls.
(§3) Cells were incubated for 96 hour at 37° C. in a humidified atmosphere containing 5% carbon dioxide.
(§4) Cells were stained with SRB solution. […] WinNonlin was provided by a Pharsight Academic License to The Ohio State University.

PC-3 = assay: Cell viability SRB assay, 96 h; assay type: cell-based; conditions: Homo sapiens, PC-3, 96 h
Description: as §1, §2, §3, §4

DU-145 = assay: Cell viability SRB assay, 96 h; assay type: cell-based; conditions: Homo sapiens, DU-145, 96 h
Description: as §1, §2, §3, §4

TSU = assay: Cell viability SRB assay, 96 h; assay type: cell-based; conditions: Homo sapiens, TSU (TSU-Pr1)
Description: as §1, §2, §3, §4

PPC-1 = assay: Cell viability SRB assay, 96 h; assay type: cell-based; conditions: Homo sapiens, PPC-1, 96 h
Description: as §1, §2, §3, §4

solid tumor cell lines = assay: Growth inhibition, range over the cell lines of Table 2; assay type: cell-based; conditions: Homo sapiens, read-out: IC50 values, range over the cell lines tested
Description: as §1
Cells were plated in 96-well plates at a density of 800-5,000 cells/well, depending on the cell line, in their required growth media containing 10% fetal bovine serum. […]

K562/Dox [1] = assay: Cell viability MTT assay, 96 h; assay type: cell-based; conditions: Homo sapiens, doxorubicin-resistant
Description: (§5) Cells were seeded in 96-well plates and incubated with different concentrations of compound 13, 68 or other anticancer drugs for 96 h. Cell viability was quantitated by MTT assay. […] Table 4 is a comparison of the IC50 of compounds 13, 68 and other anticancer drugs in the K562 and doxorubicin-resistant K562/DOX cell lines.

K562 = assay: Cell viability MTT assay, 96 h; assay type: cell-based; conditions: Homo sapiens
Description: as §5

[2] = system: human cancer cell lines from prostate, colon, breast, and bladder; assay: Cell proliferation by SRB assay, panel of cell lines; assay type: cell-based; conditions: read-out: IC50 values, range over cell lines
Description: (§6) MTT (3-(4,5-dimethylthiazol-2-yl)-2,5-diphenyltetrazolium bromide) assay was also used for the leukemia cell lines. […] Cells were stained with SRB solution or MTT solution.
Cell proliferation was measured by SRB assay.

K562/Dox [3] = assay: Growth inhibition assay (MTT, 96 h); assay type: cell-based, human; conditions: for IC50: Homo sapiens, K562/Dox, P-gp over-expressed, 96 h; for resistance factor (ratio of IC50 resistant subline to parental cell line): K562/Dox vs K562 (P-gp)
Source text: as §6

HEK293-MRP2 = assay: Growth inhibition assay (96 h); assay type: cell-based, human; conditions: HEK293-MRP2 vs HEK293-pcDNA3.1
[4] = system: MRP1 (over-expressed in the cells); assay: Growth inhibition assay (96 h); assay type: cell-based, human; conditions: human, HEK293 cells over-expressing MRP1 (HEK293-MRP1); HEK293-MRP1, MRP1 over-expressed, 96 h
HEK293-MRP1 = assay: Growth inhibition assay (96 h); assay type: cell-based, human; conditions: HEK293-MRP1 vs HEK293-pcDNA3.1
tubulin = system: T1, tubulin; assay: In vitro tubulin polymerization assay; assay type: biochemical, bovine; conditions: cell free, turbidity 340 nm, 40 min; read-out: IC50 of microtubule formation (tubulin polymerization)
T1 construct: IC50 of microtubule formation (tubulin polymerization); other: cell free, turbidity 340 nm, 40 min
Description: Tubulin polymerization kits (Cytoskeleton, Denver, Colo.) were used to study tubulin depolymerization. The reaction contained 50 μL of 4 mg/mL tubulin in PEM buffer (80 mM PIPES, pH 7.0, 0.5 mM EGTA, 2 mM MgCl2, 1 mM GTP, 10% glycerol). The procedure was done according to the manufacturer's protocol. Tubulin polymerization was monitored in a UV spectrophotometer for 40 minutes at 340 nm at 37° C.

PC-12 cells = assay: PC-12 cell growth inhibition (SRB); assay type: cell-based
Source text: as §6

MES-SA/DX5 = assay: Growth inhibition assay (96 h); assay type: cell-based, human; conditions: for resistance factor (ratio of IC50 resistant subline to parental cell line): MES-SA/DX5 vs MES-SA (P-gp)
Source text: as §6

HEK293-pcDNA3.1 = assay: Growth inhibition assay (96 h); assay type: cell-based, human; conditions: Homo sapiens, HEK293-pcDNA3.1 (control for MRP)
Source text: as §6

Bcl-2 = assay: Western blot of Bcl-2 phosphorylation; assay type: cell-based, human; conditions: PC-3 cells, 24 h, immunoblot of pBcl-2
Description: Treated cells were lysed in cold lysis buffer (20 mM Tris-HCl, pH 7.5, 150 mM NaCl, 1 mM Na2 EDTA, 1% Triton x-100, and freshly added Na3VO4 (2 mM), NaF (20 mM) and complete protease inhibitor cocktail). For each sample, an aliquot (20 to 40 μg) of total protein was loaded and run on a SDS-Page gel. Protein was transferred to nitrocellulose membranes (Bio-Rad Laboratories, Hercules, Calif.), blocked with 5% non-fat milk, incubated with primary antibody overnight at 4° C., and then incubated with secondary antibody at rt for 1 h. ECL™ (GE Healthcare Bio-Sciences Corp., Piscataway, N.J.) was used for detection. The band intensity was measured by densitometry using TotalLab TL100 Software v2006 (Nonlinear Dynamics Ltd., Newcastle upon Tyne, UK).

SMILES | IC50 (LNCaP) [nM] | IC50 (PC-3) [nM] | IC50 (DU-145) [nM] | IC50 (TSU) [nM] | IC50 (PPC-1) [nM] | IC50 (solid tumor cell lines) [nM] | IC50 (K562/Dox [1]) [nM] | IC50 (K562) [nM] | IC50 [2] [nM] | IC50 (K562/Dox [3]) [nM] | resistance factor (ratio of IC50 resistant subline to parental cell line) (K562/Dox [3]) | resistance factor (ratio of IC50 resistant subline to parental cell line) (HEK293-MRP2) | IC50 at 96 h [4] [nM] | resistance factor (ratio of IC50 resistant subline to parental cell line) (HEK293-MRP1) | IC50 (tubulin) [nM] | IC70 value in PC-12 cell growth inhibition (PC-12 cells) [nM] | resistance factor (ratio of IC50 resistant subline to parental cell line) (MES-SA/DX5) | IC50 (HEK293-pcDNA3.1) [nM] | concentration that induced phosphorylation (Ser70) of Bcl-2 (Bcl-2) [nM] | other results
O=C(c1cccc(-c2cc3ccccc3[nH]2)c1)c1cc2ccccc2[nH]1 [Compound 13, (1H-indol-2-yl)-[3-(1H-indol-2-yl)phenyl]methanone] | 442 ± 2.4 | 81.1 ± 9.6 | 138 ± 12.6 | 33.8 ± 1.8 | 67.3 ± 1.1 | 34 to 138 | 78.2 ± 2.9 | 63.6 ± 2.4 | – | – | – | – | – | – | – | – | – | – | – | –
COc1cc(C(=O)c2cccc(-c3cc4ccccc4[nH]3)c2)cc(OC)c1OC [Compound 68, [3-(1H-Indol-2-yl)-phenyl]-(3,4,5-trimethoxy-phenyl)-methanone] | 13 ± 3.5 | 28 ± 2 | 23 ± 4.1 | 18 ± 2.1 | 19 ± 1.5 | 18 to 31 | 18 ± 4.4 | 23.6 ± 2.4 | 15.1 to 39.2 | 18 ± 4.4 | (0.8) | (1.3) | 30.4 ± 6.4 | (1.3) | 381 | 50 | (1.0) | 23.8 ± 1.7 | 50 | IC50 (MES-SA/DX5; Homo sapiens, MES-SA/DX5, P-gp over-expressed, 96 h): 32.3 ± 8.2 nM
CC[C@]1(O)C[C@@H]2CN(CCc3c([nH]c4ccccc34)[C@@](C(=O)OC)(c3cc4c(cc3OC)N(C)[C@H]3[C@@](O)(C(=O)OC)[C@H](OC(C)=O)[C@]5(CC)C=CCN6CC[C@]43[C@@H]65)C2)C1 [Vinblastine] | – | – | – | – | – | – | […] | 0.3 ± 0.1 | 1.1 to 6.3 | […] | […] | […] | […] | […] | […] | […] | […] | […] | […] | resistance factor (ratio of IC50 resistant subline to parental cell line) (HEK293-MRP2; listed as vinblastine): […]; resistance factor (ratio of IC50 resistant subline to parental cell line) (HEK293-MRP1; listed as vinblastine): […]

— patent US20120022121A1, “INDOLES, DERIVATIVES AND ANALOGS THEREOF AND USES THEREFOR” (priority 2007, published 2012)
